In assay [1] the target is T1, cloned human H3 receptors, stably expressed in SK-N-MC cells (Homo sapiens, UniProt Q9Y5N1).
T1 construct: expressed in transfected cells; host or cells: SK-N-MC cells
In words: H3 Receptor Binding (Human). The settings on record: average of results obtained. How it is done: Binding of compounds to the cloned human H3 receptors, stably expressed in SK-N-MC cells, was performed as described by Barbier, A. J. et al. (Br. J. Pharmacol. 2004, 143(5), 649-661). Data for compounds tested in this assay are presented in Table 1, as an average of results obtained.

The next assay deals with T2, human H3 receptor (Homo sapiens, UniProt Q9Y5N1).
T2 construct: expressed in transfected cells; host or cells: SK-N-MC cells
In words: Cyclic AMP Accumulation (human H3). The format is cell-based. The settings on record: SK-N-MC cells expressing reporter construct and human H3 receptor, Example 1 tested as TFA salt; for Kb: read-out: Human pA2 (converted). How it is done:
(§1) Sublines of SK-N-MC cells were created that expressed a reporter construct and either the human or rat H3 receptor. The pA2 values were obtained as described by Barbier et al. (2004). Example 1 was tested as the corresponding TFA salt.

A further assay deals with T3, rat H3 receptor (Rattus norvegicus, UniProt Q9QYN8).
T3 construct: expressed in transfected cells; host or cells: SK-N-MC cells (subline with reporter construct)
In words: Cyclic AMP Accumulation (rat H3). The format is cell-based. The following applies: SK-N-MC cells expressing reporter construct and rat H3 receptor; Example 1 tested as TFA salt; read-out: Rat pA2 (converted). How it is done: as §1

In assay [2] the target is T4, rat H3 receptor (rat brain membranes) (Rattus norvegicus, UniProt Q9QYN8).
T4 construct: A rat brain without cerebellum (Zivic Laboratories Inc., Pittsburgh, Pa.) was homogenized; tissue Zivic Laboratories Inc; host or cells: rat brain without cerebellum, membranes
In words: H3 Receptor Binding (Rat). The settings on record: rat brain without cerebellum membranes; 0.8 nM N-[3H]-alpha-methylhistamine; IC50 converted to Ki (Kd 0.8 nM); tested as the corresponding TFA salt. The procedure:
A rat brain without cerebellum (Zivic Laboratories Inc., Pittsburgh, Pa.) was homogenized in 50 mM Tris-HCl/5 mM EDTA and centrifuged at 1,000 rpm for 5 min. The supernatant was removed and recentrifuged at 15,000 rpm for 30 min. Pellets were rehomogenized in 50 mM Tris/5 mM EDTA (pH 7.4). Membranes were incubated with 0.8 nM N—[^3H]-α-methylhistamine plus/minus test compounds for 60 min at 25° C. and harvested by rapid filtration over GF/C glass fiber filters (pretreated with 0.3% polyethylenimine) followed by four washes with buffer. Nonspecific binding was defined in the presence of 100 μM histamine. Inhibitory concentration (responsible for 50% inhibition of maximal effect, IC50) values were determined by a single site curve-fitting program (GraphPad, San Diego, Calif.) and converted to Ki values based on a N—[^3H]-α-methylhistamine dissociation constant (Kd) of 0.8 nM. The following results were obtained: Example 2, 28 nM; Example 6, 50 nM (tested as the corresponding TFA salt).

T3 sequence (Q9QYN8 whole entry): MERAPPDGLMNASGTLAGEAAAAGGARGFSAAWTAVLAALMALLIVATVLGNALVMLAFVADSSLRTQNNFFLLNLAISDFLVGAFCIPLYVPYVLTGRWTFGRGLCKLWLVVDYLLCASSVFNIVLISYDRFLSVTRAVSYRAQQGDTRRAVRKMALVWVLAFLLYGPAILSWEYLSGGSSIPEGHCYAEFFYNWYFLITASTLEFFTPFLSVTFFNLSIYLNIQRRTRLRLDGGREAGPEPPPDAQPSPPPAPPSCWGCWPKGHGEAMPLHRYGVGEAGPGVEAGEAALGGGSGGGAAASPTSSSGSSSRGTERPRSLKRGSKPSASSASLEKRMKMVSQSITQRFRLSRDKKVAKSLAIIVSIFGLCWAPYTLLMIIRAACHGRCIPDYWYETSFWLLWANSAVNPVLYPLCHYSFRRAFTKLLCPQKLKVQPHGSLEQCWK
T1 sequence (Q9Y5N1 whole entry): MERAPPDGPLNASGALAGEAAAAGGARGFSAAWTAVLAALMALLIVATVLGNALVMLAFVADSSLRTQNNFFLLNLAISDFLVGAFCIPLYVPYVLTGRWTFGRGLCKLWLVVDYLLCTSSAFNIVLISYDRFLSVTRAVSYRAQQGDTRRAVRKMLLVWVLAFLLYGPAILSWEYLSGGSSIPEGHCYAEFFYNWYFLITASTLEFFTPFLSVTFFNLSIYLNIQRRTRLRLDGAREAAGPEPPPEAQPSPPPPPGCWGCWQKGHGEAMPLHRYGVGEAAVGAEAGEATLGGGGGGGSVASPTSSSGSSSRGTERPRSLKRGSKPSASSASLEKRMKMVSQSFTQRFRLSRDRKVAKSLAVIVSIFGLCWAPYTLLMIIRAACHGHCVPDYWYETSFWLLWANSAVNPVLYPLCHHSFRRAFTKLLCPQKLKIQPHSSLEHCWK
T2 sequence (Q9Y5N1 whole entry): as above
T4 sequence (Q9QYN8 whole entry): as the sequence (Q9QYN8 whole entry) above

As usually defined, the Ki is the equilibrium dissociation constant of an inhibitor or competing ligand from its target. Turning to `O=C(c1cncc(Oc2ccc(F)cc2)c1)N1CCCN(C2CCC2)CC1` [Example 1, (4-Cyclobutyl-[1,4]diazepan-1-yl)-[5-(4-fluoro-phenoxy)-pyridin-3-yl]-methanone], the inhibition constant (Ki) in assay [1] was determined as 3.6 nM. Besides, the “Human pA2” value on human H3 receptor was 8.87. The Kb at rat H3 receptor was 28.8 nM.
Regarding `O=C(c1cncc(Oc2cccc(Cl)c2)c1)N1CCCN(C2CCC2)CC1` [Example 2, [5-(3-Chloro-phenoxy)-pyridin-3-yl]-(4-cyclobutyl-[1,4]diazepan-1-yl)-methanone], the Ki came out at 3.2 nM in assay [1] and 28 nM in assay [2].
As to `N#Cc1cccc(Oc2cncc(C(=O)N3CCCN(C4CCC4)CC3)c2)c1` [Example 3, 3-[5-(4-Cyclobutyl-[1,4]diazepane-1-carbonyl)-pyridin-3-yloxy]-benzonitrile], in assay [1], the Ki is 1.9 nM. The Kb was 0.955 nM on human H3 receptor and 6.17 nM on rat H3 receptor.
Take `O=C(c1cncc(Oc2ccccc2)c1)N1CCCN(C2CCC2)CC1` [Example 4, (4-Cyclobutyl-[1,4]diazepan-1-yl)-(5-phenoxy-pyridin-3-yl)-methanone]: the affinity in assay [1], expressed as Ki, was 3.4 nM.
The compound `COc1cccc(Oc2cncc(C(=O)N3CCCN(C4CCC4)CC3)c2)c1` [Example 5, (4-Cyclobutyl-[1,4]diazepan-1-yl)-[5-(3-methoxy-phenoxy)-pyridin-3-yl]-methanone] registered a Ki in assay [1] of 3.4 nM.
Regarding `O=C(c1cncc(Oc2cccc(F)c2)c1)N1CCCN(C2CCC2)CC1` [Example 6, (4-Cyclobutyl-[1,4]diazepan-1-yl)-[5-(3-fluoro-phenoxy)-pyridin-3-yl]-methanone], the Ki in assay [1] amounted to 1 nM; in assay [2], 50 nM. Further, the Kb on human H3 receptor was 2.4 nM; at rat H3 receptor, 20.4 nM.
In assay [1], `CC(C)Oc1cncc(C(=O)N2CCCN(C3CCC3)CC2)c1` [Example 7, (4-Cyclobutyl-[1,4]diazepan-1-yl)-(5-isopropoxy-pyridin-3-yl)-methanone] had a Ki of 11 nM.
With `O=C(c1cncc(Sc2ccc(F)cc2)c1)N1CCCN(C2CCC2)CC1` [Example 8, (4-Cyclobutyl-[1,4]diazepan-1-yl)-[5-(4-fluoro-phenylsulfanyl)-pyridin-3-yl]-methanone], in assay [1], affinity was put at a Ki of 2.9 nM. For the same compound, the figures for the Kb on human H3 receptor and at rat H3 receptor were 3.98 nM and 43.7 nM, respectively.
The compound `CC(C)Sc1cncc(C(=O)N2CCCN(C3CCC3)CC2)c1` [Example 9, (4-Cyclobutyl-[1,4]diazepan-1-yl)-(5-isopropylsulfanyl-pyridin-3-yl)-methanone] yielded an inhibitory constant (Ki) in assay [1] of 3 nM.
As for `O=C(c1cncc(Sc2ccccn2)c1)N1CCCN(C2CCC2)CC1` [Example 10, (4-Cyclobutyl-[1,4]diazepan-1-yl)-[5-(pyridin-2-ylsulfanyl)-pyridin-3-yl]-methanone], in assay [1], the affinity, expressed as Ki, was 6.6 nM.
The same measure, in the same setting: in the case of `O=C(c1cncc(Sc2ncccn2)c1)N1CCCN(C2CCC2)CC1` [Example 11, (4-Cyclobutyl-[1,4]diazepan-1-yl)-[5-(pyrimidin-2-ylsulfanyl)-pyridin-3-yl]-methanone] it was 18 nM; in that of `O=C(c1cncc(Sc2ccncc2)c1)N1CCCN(C2CCC2)CC1` [Example 12, (4-Cyclobutyl-[1,4]diazepan-1-yl)-[5-(pyridin-4-ylsulfanyl)-pyridin-3-yl]-methanone], 1.8 nM.
The compound `O=C(c1cc(Oc2ccccc2)ccn1)N1CCCN(C2CCC2)CC1` [Example 13, (4-Cyclobutyl-[1,4]diazepan-1-yl)-(4-phenoxy-pyridin-2-yl)-methanone] displayed a Ki in assay [1] of 11 nM.
Still for that read-out and setting: the figure for `O=C(c1cc(Oc2ccc(F)cc2)ccn1)N1CCCN(C2CCC2)CC1` [Example 14, (4-Cyclobutyl-[1,4]diazepan-1-yl)-[4-(4-fluoro-phenoxy)-pyridin-2-yl]-methanone] is 17 nM; for `O=C(c1cc(Sc2ccc(F)cc2)ccn1)N1CCCN(C2CCC2)CC1` [Example 15, (4-Cyclobutyl-[1,4]diazepan-1-yl)-[4-(4-fluoro-phenylsulfanyl)-pyridin-2-yl]-methanone] it is 12 nM.

Values taken from patent US20090131417A1, “SUBSTITUTED PYRIDYL AMIDE COMPOUNDS AS MODULATORS OF THE HISTAMINE H3 RECEPTOR” (priority 2007, published 2009).
